According to patent publication US20080031982A1 (Metaproteomics, LLC, priority 2006, published 2008):
Marks after values point to notes of the source that are not given here.

Experiments:
[1] = test system: insulin-resistant 3T3-L1 adipocytes; test: Adiponectin secretion from insulin-resistant 3T3-L1 adipocytes; assay type: cell-based, murine; conditions: 50.0 μg/ml, ratio of the indices (Table 21)
Experimental: 3T3-L1 cells were seeded at an initial density of 1×10^4 cells/cm^2 in 96-well plates. For two days, the cells were allowed grow to reach confluence. Following confluence, the cells were forced to differentiate into adipocytes by the addition of differentiation medium; this medium consisted of (1) 10% FBS/DMEM (high glucose); (2) 0.5 mM methylisobutylxanthine; (3) 0.5 μM dexamethasone and (4) 10 μg/ml insulin (MDI medium). From Day 3 through Day 5, the medium was changed to post-differentiation medium consisting of 10 μg/ml insulin in 10% FBS/DMEM.
Briefly, on Day 6, cells were maintained in serum-free media containing 0.5% bovine serum albumin (BSA) for three hours and then treated with 1 μg insulin/ml plus solvent or insulin plus test material. […] Twenty-four hours later, the supernatant medium was sampled for adiponectin determination.
Adiponectin Assay—The adiponectin secreted into the medium was quantified using the Mouse Adiponectin Quantikine® Immunoassay kit with no modifications (R&D Systems, Minneapolis, Minn.).
Substituting {relative adiponectin secretion/[concentration]} for the independent variable v/[S] and {relative adiponectin secretion} for the dependant variable {v}, produced a relationship of the form y=mx+b. […]

3T3-L1 adipocytes = test: Lipogenesis in 3T3-L1 adipocytes (Oil Red O / BODIPY); assay type: cell-based, murine; conditions: for adipogenic / lipogenic response: relative to solvent and positive controls
Experimental: Prior to experiments, cells were cultured in DMEM containing 10% FBS-HI added 50 units penicillin/ml and 50 μg streptomycin/ml, and maintained in log phase prior to experimental setup. Cells were grown in a 5% CO2 humidified incubator at 37° C. Components of the pre-confluent medium included (1) 10% FBS/DMEM containing 4.5 g glucose/L; (2) 50 U/ml penicillin; and (3) 50 μg/ml streptomycin. Growth medium was made by adding 50 ml of heat inactivated FBS and 5 ml of penicillin/streptomycin to 500 ml DMEM. This medium was stored at 4° C. Before use, the medium was warmed to 37° C. in a water bath.
3T3-T1 cells were seeded at an initial density of 6×10^4 cells/cm^2 in 24-well plates. For two days, the cells were allowed grow to reach confluence. Following confluence, the cells were forced to differentiate into adipocytes by the addition of differentiation medium; this medium consisted of (1) 10% FBS/DMEM (high glucose); (2) 0.5 mM methylisobutylxanthine; (3) 0.5 μM dexamethasone and (4) 10 μg/ml insulin (MDI medium). After three days, the medium was changed to post-differentiation medium consisting of 10 μg/ml insulin in 10% FBS/DMEM.
Whenever fresh media were added, fresh test material was also added.
Oil Red 0 Staining—Triglyceride content of D6/D7-differentiated 3T3-L1 cells was estimated with Oil Red 0 according to the method of Kasturi and Joshi [Kasturi, R. and Joshi, V. C. […] Monolayer cells were washed with PBS (phosphate buffered saline, Mediatech) and fixed with 10% formaldehyde for ten minutes. Fixed cells were stained with an Oil Red 0 working solution of three parts 0.6% Oil Red O/isopropanol stock solution and two parts water for one hour and the excess stain was washed once with water. The resulting stained oil droplets were extracted from the cells with isopropanol and quantified by spectrophotometric analysis at 540 nm (MEL312e BIO-KINETICS READER, Bio-Tek Instruments, Winooski, Vt.).
Briefly, media were removed and cells were washed once with non-sterile PBS. A stock 1000× BODIPY/DMSO solution was made by dissolving 1 mg BODIPY in 1 ml DMSO (1,000 μg BODIPY/ml). […] One-hundred μl of this working solution (1 μg BODIPY) was added to each well of a 96-well microtiter plate. After 15 min on an orbital shaker (DS-500, VWR Scientific Products, South Plainfield, N.J.) at ambient temperature, the cells were washed with 100 μl PBS followed by the addition of 100 μl PBS for reading for spectrofluorometric determination of BODIPY incorporation into the cells.
Nonpolar lipid incorporation was represented relative to the nonpolar lipid accumulation of fully differentiated cells in the solvent controls.

[2] = test system: LPS-stimulated 3T3-L1 adipocytes; test: IL-6 secretion in LPS/3T3-L1 adipocytes; assay type: cell-based, murine; conditions: at the concentration of maximum inhibition, 100 ng LPS/ml; for IL-6 Index: indexed to LPS control
[3] = test system: LPS-treated 3T3-L1 adipocytes; test: Adiponectin secretion in LPS/3T3-L1 adipocytes; assay type: cell-based, murine; conditions: for Maximum adiponectin stimulation / concentration of maximum adiponectin stimulation: 100 ng/ml LPS
PGE2 biosynthesis = PGE2 biosynthesis in A549 cells stimulated by mite dust allergen; assay type: cell-based, human; conditions: 10 μg/ml
Excerpt: Mite dust allergen isolation—Dermatophagoides farinae is the American house dust mite. D. farinae were raised on a 1:1 ratio of Purina Laboratory Chow (Ralston Purina, Co, St. Louis, Mo.) and Fleischmann's granulated dry yeast (Standard Brands, Inc. New York, N.Y.) at room temperature and 75% humidity. Live mites were aspirated from the culture container as they migrated from the medium, killed by freezing, desiccated and stored at 0% humidity. The allergenic component of the mite dust was extracted with water at ambient temperature. Five-hundred mg of mite powder were added to 5 ml of water (1:10 w/v) in a 15 ml conical centrifuge tube (VWR, Rochester, N.Y.), shaken for one minute and allowed to stand overnight at ambient temperature. The next day, the aqueous phase was filtered using a 0.2 μm disposable syringe filter (Nalgene, Rochester, N.Y.). The filtrate was termed mite dust allergen and used to test for induction of PGE2 biosynthesis in A549 pulmonary epithelial cells.
Cell culture and treatment—The human airway epithelial cell line, A549 (American Type Culture Collection, Bethesda, Md.) was cultured and treated as previously described in Example 6. Mite allergen was added to the culture medium to achieve a final concentration of 1000 ng/ml. Eighteen hours later, the media were sampled for PGE2 determination.

[4] = Non-fasting serum glucose in db/db diabetic mice; assay type: in vivo
Experimental: The Model—Male, C57BLKS/J m^+/m^+ Lepr^db (db/db) mice were used to assess the potential of the test materials to reduce fasting serum glucose or insulin concentrations. This strain of mice is resistant to leptin by virtue of the absence of a functioning leptin receptor.
Testing Procedure—Test substances were administered daily by gavage in 0.2% Tween-80. Serum was collected from the retroorbital sinus before the initial dose and ninety minutes after the third and final dose. Non-fasting serum glucose was determined enzymatically by the mutarotase/glucose oxidase method and serum insulin was determined by a mouse specific ELISA.
Testing Procedure—Test substances were administered daily by gavage in 0.2% Tween-80. Serum was collected from the retroorbital sinus before the initial dose and ninety minutes after the fifth and final dose. Non-fasting serum glucose was determined enzymatically by the mutarotase/glucose oxidase method and serum insulin was determined by a mouse specific ELISA.

[5] = Serum cytokine (IL-6, TNF-α) analysis, collagen induced arthritis; assay type: in vivo, DBA/J mice; conditions: 10 mg/kg
Experimental: Cytokine analysis—Serum was collected from the mice at the termination of the experiment for cytokine analysis. The volume of sample being low (˜0.2-0.3 ml/mouse), samples from the ten mice were randomly allocated into two pools of five animals each. This was done so to permit repeat analyses; each analysis was performed a minimum of two times. TNF-α and IL-6 were analyzed using mouse specific reagents (R&D Systems, Minneapolis, Minn.) according to the manufacturer's instructions.

[6] = test system: TNFα-treated 3T3-L1 adipocytes; test: Adiponectin secretion from TNFα-treated 3T3-L1 adipocytes; assay type: cell-based, murine; conditions: for maximum increase of adiponectin secretion from TNFα control: 10 ng/ml TNFα
Experimental: For two days, the cells were allowed grow to reach confluence. […] (3) 0.5 μM dexamethasone and (4) 10 μg/ml insulin (MDI medium). […] Adiponectin Assay—The adiponectin secreted into the medium was quantified using the Mouse Adiponectin Quantikine® Immunoassay kit with no modifications (R&D Systems, Minneapolis, Minn.). […] Statistical Calculations and Interpretation—All assays were preformed in duplicate. […] Differences among the doses and test agents were determined using the Student's t-test without correction for multiple comparisons; the nominal five percent probability of a type I error was selected.

[7] = at the concentration of maximum stimulation

Compound: CC(C)CCC1=C(O)C(C(=O)C(C)C)=C(O)C(CCC(C)C)(CCC(C)C)C1=O [Hexahydrocolupulone (HHCL)]
- Adiponectin/IL-6 [1]: 0.60#

Compound: COc1ccc2c(c1)c(CC(=O)O)c(C)n2C(=O)c1ccc(Cl)cc1 [Indomethacin, indomethacin]
- adipogenic / lipogenic response (3T3-L1 adipocytes): induced lipogenesis
- % Inhibition of IL-6 secretion (maximum) [2]: 53* %
- Maximum adiponectin stimulation [3]: 9%
- % Stimulation of adiponectin secretion (maximum) [3, 7]: 9%

Compound: CC(C)Cc1ccc(C(C)C(=O)O)cc1 (centres unmarked) [ibuprofen]
- concentration of maximum adiponectin stimulation [3]: 0.625 µg/mL
- % Stimulation of adiponectin secretion (maximum) [3, 7]: 22%

Compound: CC(=O)Oc1ccccc1C(=O)O [Aspirin, aspirin]
- Maximum adiponectin stimulation [3]: failed to induce adiponectin secretion

Compound: Beta acids
- adipogenic / lipogenic response (3T3-L1 adipocytes): comparable to indomethacin and troglitazone
- Percent PGE2 Inhibition (PGE2 biosynthesis): 83%

Compound: CC(C)CCC1=C(O)C(C(=O)C(C)C)=C(O)C(CCC(C)C)(CCC(C)C)C1=O [Hexahydro colupulone, hexahydrocolupulone]
- adipogenic / lipogenic response (3T3-L1 adipocytes): failed to elicit a lipogenic response greater than the solvent controls

Compound: CN(C)C(=N)N=C(N)N [metformin, reference compound]
- lipogenic index (triglyceride content relative to solvent control) (3T3-L1 adipocytes; Oil Red O, 50 μg/ml): 0.79
- serum glucose relative to controls ([4]; three consecutive days): decreased

Compound: C[C@]12C=CC(=O)C=C1CC[C@@H]1[C@@H]2[C@@H](O)C[C@@]2(C)[C@H]1CC[C@]2(O)C(=O)CO [prednisolone]
- reduction of serum IL-6 levels [5]: reached a statistical significance

Compound: Cc1c(C)c2c(c(C)c1O)CCC(C)(COc1ccc(CC3SC(=O)NC3=O)cc1)O2 (centres unmarked) [Troglitazone, troglitazone]
- maximum increase of adiponectin secretion from TNFα control [6]: 51%
- concentration of maximum adiponectin stimulation [3]: 0.625 µg/mL
- % Stimulation of adiponectin secretion (maximum) [3, 7]: 15%

Compound: CCc1ccc(CCOc2ccc(CC3SC(=O)NC3=O)cc2)nc1 (centres unmarked) [Pioglitazone, pioglitazone]
- IL-6 Index [2]: 0.37*
- maximum increase of adiponectin secretion from TNFα control [6]: 80%
- Adiponectin Index Observed ([6]; 1.0 μg/ml (Table 26)): 1.80
- concentration of maximum adiponectin stimulation [3]: 1.25 µg/mL
- % Stimulation of adiponectin secretion (maximum) [3, 7]: 12%

Compound: CN(CCOc1ccc(CC2SC(=O)NC2=O)cc1)c1ccccn1 (centres unmarked) [rosiglitazone]
- Glucose [% Pretreatment] ([4]; 1.0 mg/kg-day by gavage, three days, db/db mice, non-fasting serum): 83.0# % Pretreatment

Compound: O=C(O)c1ccccc1O [salicylic acid]
- IL-6 Index [2]: 0.52*
- Maximum adiponectin stimulation [3]: failed to induce adiponectin secretion
- Adiponectin Index ([3]; at the concentration of maximum stimulation, indexed to LPS control): 0.96
